Our source for the IC50 values is patent US9580416B2, “Inhibitors of Bruton's tyrosine kinase” (PHARMACYCLICS LLC, priority 2014, dated 2017).

Common to all, as to type: biochemical
The target of one test is Btk (Homo sapiens, UniProt Q06187). As to the kind of experiment: Btk kinase activity, TR-FRET assay. Particulars: read-out: Btk (IC50). Summed up:
(§1)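 Enzyme (Btk 0.5 nM; Lck 6 nM) reacted 1 h with inhibitor, ATP at Km and biotin-peptide substrate in pH 7.4 buffer, 10% DMSO. Phosphopeptide detected by Eu-p-Tyr100 antibody plus streptavidin-APC (665/615 nm). IC50 calculated from fitted Ki(app) via ATP/Km correction plus half total enzyme.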
A general note: TR-FRET usually uses a lanthanide donor and a delayed reading to cut background.

The next test deals with Lck (Homo sapiens, UniProt P06239). As to the kind of experiment: Lck kinase activity, TR-FRET assay. As to conditions: read-out: LCK (IC50). In short, it runs like this: as §1
Chain of Lck (P06239 whole entry, species assumed): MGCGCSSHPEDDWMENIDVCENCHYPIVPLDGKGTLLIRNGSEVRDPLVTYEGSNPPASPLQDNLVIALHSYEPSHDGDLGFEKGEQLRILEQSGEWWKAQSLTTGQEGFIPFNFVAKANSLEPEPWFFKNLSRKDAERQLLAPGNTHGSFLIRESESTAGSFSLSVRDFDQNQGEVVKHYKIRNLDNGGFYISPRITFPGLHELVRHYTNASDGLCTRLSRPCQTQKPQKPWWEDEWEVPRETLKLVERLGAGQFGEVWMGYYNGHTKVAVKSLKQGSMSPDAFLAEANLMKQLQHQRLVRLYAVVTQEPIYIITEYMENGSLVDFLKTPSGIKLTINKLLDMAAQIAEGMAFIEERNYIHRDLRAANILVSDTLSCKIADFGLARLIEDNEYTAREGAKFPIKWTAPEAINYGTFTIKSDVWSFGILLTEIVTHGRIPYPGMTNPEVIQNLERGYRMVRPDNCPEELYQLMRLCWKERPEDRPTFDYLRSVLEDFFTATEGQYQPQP
In the next test the target is EGFR (Homo sapiens, UniProt P00533). As to the kind of experiment: Inhibition of a panel of kinases, in vitro HotSpot kinase assay: EGFR. How it is done:
(§2) The degree of inhibition of a panel of kinases is determined using the in vitro HotSpot kinase assay (purified enzymes, ^33P-ATP, an appropriate substrate and 1 uM ATP).

The target in another test is T1, JAK3 (Homo sapiens, UniProt P52333).
T1 sequence (P52333 1-1124): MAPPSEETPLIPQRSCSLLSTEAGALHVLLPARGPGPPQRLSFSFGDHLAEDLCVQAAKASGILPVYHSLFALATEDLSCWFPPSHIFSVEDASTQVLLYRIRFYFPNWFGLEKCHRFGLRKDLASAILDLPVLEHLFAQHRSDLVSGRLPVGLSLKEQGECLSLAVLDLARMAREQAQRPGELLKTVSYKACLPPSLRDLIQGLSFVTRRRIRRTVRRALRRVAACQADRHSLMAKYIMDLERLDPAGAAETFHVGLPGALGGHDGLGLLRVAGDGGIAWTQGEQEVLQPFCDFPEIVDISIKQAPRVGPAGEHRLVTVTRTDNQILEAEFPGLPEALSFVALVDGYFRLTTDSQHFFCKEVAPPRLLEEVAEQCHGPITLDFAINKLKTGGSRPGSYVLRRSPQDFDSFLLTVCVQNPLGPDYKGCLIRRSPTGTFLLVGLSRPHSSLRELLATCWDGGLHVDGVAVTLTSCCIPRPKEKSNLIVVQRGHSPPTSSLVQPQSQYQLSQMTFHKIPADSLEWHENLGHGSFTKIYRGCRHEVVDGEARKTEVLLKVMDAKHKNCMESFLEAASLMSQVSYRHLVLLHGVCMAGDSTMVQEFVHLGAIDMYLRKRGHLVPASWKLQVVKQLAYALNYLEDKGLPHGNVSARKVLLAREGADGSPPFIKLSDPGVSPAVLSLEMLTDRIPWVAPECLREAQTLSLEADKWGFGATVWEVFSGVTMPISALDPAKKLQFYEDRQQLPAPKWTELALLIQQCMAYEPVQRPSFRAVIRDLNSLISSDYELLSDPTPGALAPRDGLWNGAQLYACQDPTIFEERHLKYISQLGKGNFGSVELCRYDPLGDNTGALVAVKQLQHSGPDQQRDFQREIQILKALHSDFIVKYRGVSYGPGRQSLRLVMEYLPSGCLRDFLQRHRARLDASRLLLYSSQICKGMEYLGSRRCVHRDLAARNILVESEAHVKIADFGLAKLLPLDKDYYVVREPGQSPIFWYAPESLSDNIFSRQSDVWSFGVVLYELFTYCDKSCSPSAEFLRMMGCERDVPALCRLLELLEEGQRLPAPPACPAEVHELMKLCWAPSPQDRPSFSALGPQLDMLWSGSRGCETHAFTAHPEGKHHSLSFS
As to the kind of experiment: Inhibition of a panel of kinases, in vitro HotSpot kinase assay: JAK3. How it is done:
as §2

Chain of EGFR (P00533 25-1210): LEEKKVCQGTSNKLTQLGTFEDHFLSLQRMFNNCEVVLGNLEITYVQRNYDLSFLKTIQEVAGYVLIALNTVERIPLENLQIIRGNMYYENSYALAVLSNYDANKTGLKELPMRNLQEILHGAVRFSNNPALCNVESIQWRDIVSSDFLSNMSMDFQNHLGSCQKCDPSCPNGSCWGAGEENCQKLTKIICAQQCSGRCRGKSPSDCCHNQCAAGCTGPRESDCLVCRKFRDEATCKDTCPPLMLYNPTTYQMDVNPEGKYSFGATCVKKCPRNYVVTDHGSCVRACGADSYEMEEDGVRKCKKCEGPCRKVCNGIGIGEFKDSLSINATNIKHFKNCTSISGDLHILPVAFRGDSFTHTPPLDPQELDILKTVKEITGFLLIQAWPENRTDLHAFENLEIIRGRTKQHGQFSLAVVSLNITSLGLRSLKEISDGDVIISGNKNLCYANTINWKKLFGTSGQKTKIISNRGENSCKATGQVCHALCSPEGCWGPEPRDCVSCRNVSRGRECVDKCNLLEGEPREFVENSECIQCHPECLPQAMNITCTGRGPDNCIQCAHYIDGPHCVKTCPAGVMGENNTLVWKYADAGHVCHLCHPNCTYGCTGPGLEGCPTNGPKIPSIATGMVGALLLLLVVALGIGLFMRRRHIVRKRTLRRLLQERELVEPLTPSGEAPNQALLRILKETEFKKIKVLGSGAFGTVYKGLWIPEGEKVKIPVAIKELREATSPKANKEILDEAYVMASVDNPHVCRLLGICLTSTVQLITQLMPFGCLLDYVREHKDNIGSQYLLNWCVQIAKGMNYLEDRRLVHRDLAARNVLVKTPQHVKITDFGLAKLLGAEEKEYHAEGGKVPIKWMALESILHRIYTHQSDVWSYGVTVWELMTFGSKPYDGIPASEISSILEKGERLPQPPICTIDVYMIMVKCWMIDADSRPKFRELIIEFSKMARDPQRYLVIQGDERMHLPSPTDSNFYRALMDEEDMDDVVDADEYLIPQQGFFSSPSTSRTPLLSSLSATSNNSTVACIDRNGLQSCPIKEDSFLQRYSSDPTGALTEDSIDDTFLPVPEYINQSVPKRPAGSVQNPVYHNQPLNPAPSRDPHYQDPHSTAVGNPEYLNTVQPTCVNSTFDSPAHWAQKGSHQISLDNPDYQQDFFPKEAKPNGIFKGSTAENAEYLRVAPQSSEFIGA
Chain of Btk (Q06187 whole entry): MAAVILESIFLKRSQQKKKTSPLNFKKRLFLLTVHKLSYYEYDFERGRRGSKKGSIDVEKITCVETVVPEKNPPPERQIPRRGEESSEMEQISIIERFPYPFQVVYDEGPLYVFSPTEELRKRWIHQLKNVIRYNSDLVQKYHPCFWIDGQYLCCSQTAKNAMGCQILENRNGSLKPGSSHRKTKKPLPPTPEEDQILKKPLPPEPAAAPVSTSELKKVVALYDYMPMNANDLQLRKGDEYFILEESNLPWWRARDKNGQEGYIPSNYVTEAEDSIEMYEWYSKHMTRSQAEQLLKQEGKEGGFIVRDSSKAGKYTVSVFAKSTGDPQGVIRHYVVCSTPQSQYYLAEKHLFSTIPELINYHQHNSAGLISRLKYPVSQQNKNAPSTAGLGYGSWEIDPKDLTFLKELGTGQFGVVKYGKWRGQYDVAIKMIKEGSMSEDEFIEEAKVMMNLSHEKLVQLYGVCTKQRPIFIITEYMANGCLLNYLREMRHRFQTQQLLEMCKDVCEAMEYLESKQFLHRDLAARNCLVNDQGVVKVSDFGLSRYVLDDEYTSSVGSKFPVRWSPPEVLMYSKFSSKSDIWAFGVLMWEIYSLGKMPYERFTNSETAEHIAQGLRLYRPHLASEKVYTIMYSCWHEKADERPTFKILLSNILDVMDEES

`Cc1ccnc(NC(=O)c2ccc(Oc3ccnc4[nH]nc(N[C@@H]5CCCN(C(=O)N(C)C)C5)c34)cc2)c1` [compound 106, (3R)-N,N-dimethyl-3-[(4-{4-[(4-methylpyridin-2-yl)carbamoyl]phenoxy}-1H-pyrazolo[3,4-b]pyridin-3-yl)amino]piperidine-1-carboxamide]: the IC50 on Btk is < 100 nM; at Lck it was 100 to 1000 nM; on EGFR it was 1000 to 10000 nM; against JAK3, > 10000 nM.

For `C=CC(=O)N1CCCC(Nc2n[nH]c3nccc(Oc4ccc(-c5ccc(C(F)(F)F)cn5)cc4)c23)C1` (stereo in doubt) [compound 196, 1-[(3S)-3-[(4-{4-[5-(trifluoromethyl)pyridin-2-yl]phenoxy}-1H-pyrazolo[3,4-b]pyridin-3-yl)amino]piperidin-1-yl]prop-2-en-1-one], the IC50 on Btk was 100 to 1000 nM; at Lck it was > 10000 nM; at EGFR, 1000 to 10000 nM; at JAK3, 100 to 1000 nM.

Turning to `CCC(=O)N1CCC[C@@H](Nc2n[nH]c3nccc(Oc4ccc(-c5nc6ccccc6[nH]5)cc4)c23)C1` [compound 231, 1-[(3R)-3-({4-[4-(1H-1,3-benzodiazol-2-yl)phenoxy]-1H-pyrazolo[3,4-b]pyridin-3-yl}amino)piperidin-1-yl]propan-1-one], the IC50 at Btk, at Lck, on EGFR and on JAK3 was > 10000 nM each time.

For the molecule `COCCCC(=O)N1CCC[C@@H](Nc2n[nH]c3nccc(Oc4ccc(C(=O)Nc5cc(C)ccn5)cc4)c23)C1` [compound 274, (R)-4-(3-(1-(4-methoxybutanoyl)piperidin-3-ylamino)-1H-pyrazolo[3,4-b]pyridin-4-yloxy)-N-(4-methylpyridin-2-yl)benzamide], the IC50 at Btk is < 100 nM; on Lck it was 100 to 1000 nM; against EGFR, > 10000 nM; at JAK3, > 10000 nM.

Take `Cc1nc(NC(=O)c2ccc(Oc3ccnc4[nH]nc(N[C@@H]5CCCN(C(=O)/C=C/CN(C)C6CC6)C5)c34)cc2)sc1C` [compound 164]: the 50% inhibitory concentration (IC50) on Btk is < 100 nM; at Lck, 1000 to 10000 nM; against EGFR it was 1000 to 10000 nM; on JAK3, 1000 to 10000 nM.

Consider `CCOP(=O)(CCC(=O)N1CCC[C@@H](Nc2n[nH]c3nccc(Oc4ccc(C(=O)Nc5cc(C)ccn5)cc4)c23)C1)OCC` [compound 273, (R)-diethyl 3-(3-(4-(4-(4-methylpyridin-2-ylcarbamoyl)phenoxy)-1H-pyrazolo[3,4-b]pyridin-3-ylamino)piperidin-1-yl)-3-oxopropylphosphonate], for which the IC50 at Btk was < 100 nM; at Lck it was 1000 to 10000 nM; at EGFR, > 10000 nM; against JAK3, > 10000 nM.

Consider `CCC(=O)N1CCC[C@@H](Nc2n[nH]c3nccc(Oc4ccc(-c5nc6ccccc6s5)cc4)c23)C1` [compound 222, 1-[(3R)-3-({4-[4-(1,3-benzothiazol-2-yl)phenoxy]-1H-pyrazolo[3,4-b]pyridin-3-yl}amino)piperidin-1-yl]propan-1-one], for which the IC50 at Btk is 100 to 1000 nM; at Lck, 100 to 1000 nM; against EGFR, > 10000 nM; against JAK3, > 10000 nM.

With `Cc1ccnc(NC(=O)c2ccc(Oc3ccnc4[nH]nc(N[C@@H]5CCCN(C(=O)C(C)(C)C#N)C5)c34)cc2)c1` [compound 102, 4-[(3-{[(3R)-1-(2-cyano-2,2-dimethylacetyl)piperidin-3-yl]amino}-1H-pyrazolo[3,4-b]pyridin-4-yl)oxy]-N-(4-methylpyridin-2-yl)benzamide], the IC50 was < 100 nM at Btk, 100 to 1000 nM on Lck, > 10000 nM on EGFR and > 10000 nM against JAK3.

For the molecule `Cc1ccnc(NC(=O)c2ccc(Oc3ccnc4[nH]nc(N[C@@H]5CCCN(C(=O)C6(C)CCN(C(=O)OC(C)(C)C)CC6)C5)c34)cc2)c1` [compound 103, tert-butyl 4-methyl-4-[(3R)-3-[(4-{4-[(4-methylpyridin-2-yl)carbamoyl]phenoxy}-1H-pyrazolo[3,4-b]pyridin-3-yl)amino]piperidine-1-carbonyl]piperidine-1-carboxylate], the half-inhibitory concentration (IC50) at Btk was < 100 nM; on Lck it was 1000 to 10000 nM; at EGFR it was > 10000 nM; against JAK3, > 10000 nM.

Regarding `C=CC(=O)N1CCC[C@@H](Nc2n[nH]c3nccc(Oc4ccc(C(=O)Nc5ncc(C)s5)cc4)c23)C1` [compound 140], the IC50 is < 100 nM on Btk, 100 to 1000 nM at Lck, 100 to 1000 nM at EGFR and < 100 nM on JAK3.

As for `Cc1ccnc(NC(=O)c2ccc(Oc3ccnc4[nH]nc(N[C@@H]5CCCN(C(=O)C#CCO)C5)c34)cc2)c1` [compound 282, (R)-4-(3-(1-(4-hydroxybut-2-ynoyl)piperidin-3-ylamino)-1H-pyrazolo[3,4-b]pyridin-4-yloxy)-N-(4-methylpyridin-2-yl)benzamide], the IC50 on Btk was < 100 nM; on Lck, 100 to 1000 nM; against EGFR it was 100 to 1000 nM; against JAK3 it was 100 to 1000 nM.

As to `CN1CCc2sc(NC(=O)c3ccc(Oc4ccnc5[nH]nc(N[C@@H]6CCCN(C(=O)/C=C/CN(C)C7CC7)C6)c45)cc3)nc2C1` [compound 137, 4-[(3-{[(3R)-1-[(2E)-4-[cyclopropyl(methyl)amino]but-2-enoyl]piperidin-3-yl]amino}-1H-pyrazolo[3,4-b]pyridin-4-yl)oxy]-N-{5-methyl-4H,5H,6H,7H-[1,3]thiazol[4,5-c]pyridin-2-yl}benzamide], the IC50 at Btk was 100 to 1000 nM; on Lck, > 10000 nM; on EGFR, > 10000 nM; against JAK3, > 10000 nM.

Take `CC(=O)N1CC[C@H](Nc2n[nH]c3nccc(Oc4cccc(C(=O)Nc5ccc(C(C)C)c(C)c5)c4)c23)C1` [compound 124, 3-[(3-{[(3S)-1-acetylpyrrolidin-3-yl]amino}-1H-pyrazolo[3,4-b]pyridin-4-yl)oxy]-N-[3-methyl-4-(propan-2-yl)phenyl]benzamide]: the IC50 was 100 to 1000 nM on Btk, < 100 nM on Lck, 1000 to 10000 nM at EGFR and 1000 to 10000 nM on JAK3.

For `CN1CCC(C(=O)N2CCC[C@@H](Nc3n[nH]c4nccc(Oc5ccc(C(=O)Nc6cc(C(F)(F)F)ccn6)cc5)c34)C2)CC1` [compound 204, 4-[(3-{[(3R)-1-(1-methylpiperidine-4-carbonyl)piperidin-3-yl]amino}-1H-pyrazolo[3,4-b]pyridin-4-yl)oxy]-N-[4-(trifluoromethyl)pyridin-2-yl]benzamide], the IC50 on Btk is < 100 nM; on Lck, < 100 nM; against EGFR, 1000 to 10000 nM; against JAK3, > 10000 nM.

For `CCNC(=O)N1CCC[C@@H](Nc2n[nH]c3nccc(Oc4ccc(-c5nc6ccccc6s5)cc4)c23)C1` [compound 216, (3R)-3-({4-[4-(1,3-benzothiazol-2-yl)phenoxy]-1H-pyrazolo[3,4-b]pyridin-3-yl}amino)-N-ethylpiperidine-1-carboxamide], the IC50 on Btk is 100 to 1000 nM; on Lck, 1000 to 10000 nM; on EGFR, > 10000 nM; on JAK3 it was > 10000 nM.

In the case of `CC1(C(=O)N2CCC[C@@H](Nc3n[nH]c4nccc(Oc5ccc(C(=O)Nc6ccccn6)cc5)c34)C2)CCOCC1` [compound 112, 4-[(3-{[(3R)-1-(4-methyloxane-4-carbonyl)piperidin-3-yl]amino}-1H-pyrazolo[3,4-b]pyridin-4-yl)oxy]N-(pyridin-2-yl)benzamide], the IC50 at Btk was < 100 nM; at Lck it was 1000 to 10000 nM; against EGFR, > 10000 nM; against JAK3, > 10000 nM.

Turning to `Cc1ccnc(NC(=O)c2ccc(Oc3ccnc4[nH]nc(N[C@@H]5CCCN(C(=O)C6CCOCC6)C5)c34)cc2)c1` [compound 105, N-(4-methylpyridin-2-yl)-4-[(3-{[(3R)-1-(oxane-4-carbonyl)piperidin-3-yl]amino}-1H-pyrazolo[3,4-b]pyridin-4-yl)oxy]benzamide], the IC50 was < 100 nM on Btk, 1000 to 10000 nM at Lck, > 10000 nM against EGFR and > 10000 nM against JAK3.

The IC50 is the midpoint of a concentration-inhibition curve.
